Source: US20120122924A1, “NAMPT INHIBITORS” (ABBOTT LABORATORIES, priority 2010, published 2012)

target: recombinant, human, C-terminally-His tagged NAMPT (Homo sapiens, UniProt P43490); assay: Time-Resolved Fluorescence Resonance Energy Transfer (TR-FRET) binding assay of NAMPT; settings: 6.8 nM NAMPT, 200 nM probe (Oregon Green 488-conjugated APO866), 1 nM Tb-anti-His antibody, 2-3 hours
In short: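 Competition binding with 6.8 nM His-tagged NAMPT, 1 nM Tb-anti-His antibody and 200 nM Oregon Green 488-APO866 probe in HEPES pH 7.5 buffer with MgCl2 and DTT, 2–3 h. Excitation 337 nm; 520/492 nm emission ratio used for IC50.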

Sequence of recombinant, human, C-terminally-His tagged NAMPT (P43490 whole entry): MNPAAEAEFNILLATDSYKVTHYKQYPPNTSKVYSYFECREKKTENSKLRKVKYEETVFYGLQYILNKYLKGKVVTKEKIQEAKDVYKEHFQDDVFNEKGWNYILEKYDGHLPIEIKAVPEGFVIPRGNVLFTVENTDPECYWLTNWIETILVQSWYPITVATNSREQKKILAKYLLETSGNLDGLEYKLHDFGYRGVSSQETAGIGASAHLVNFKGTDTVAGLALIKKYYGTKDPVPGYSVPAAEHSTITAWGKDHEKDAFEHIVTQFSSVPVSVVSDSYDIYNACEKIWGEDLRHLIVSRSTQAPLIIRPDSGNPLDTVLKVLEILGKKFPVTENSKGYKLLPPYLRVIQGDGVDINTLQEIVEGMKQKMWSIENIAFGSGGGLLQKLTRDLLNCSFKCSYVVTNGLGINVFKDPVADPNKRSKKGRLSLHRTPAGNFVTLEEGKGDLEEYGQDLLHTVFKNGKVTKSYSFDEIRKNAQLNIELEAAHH

**Q.** For `CC(C)CCNC(=O)c1ccc(NC(=O)N2CCc3cc(F)ccc3C2)cc1` [Example 6, 6-fluoro-N-{4-[(3-methylbutyl)carbamoyl]phenyl}-3,4-dihydroisoquinoline-2(1H)-carboxamide], which IC50 is on record?
**A.** 10.3 nM

**Q.** Which IC50 does the source give for `O=C(Nc1ccc(-c2cnn(Cc3ccccc3)c2)cc1)N1CCc2ccccc2C1` [Example 38, N-[4-(1-benzyl-1H-pyrazol-4-yl)phenyl]-3,4-dihydroisoquinoline-2(1H)-carboxamide] here?
**A.** 391 nM

**Q.** With `O=C(NCCc1cccs1)c1ccc(NC(=O)N2CCc3cnccc3C2)cc1` [Example 12, N-(4-{[2-(2-thienyl)ethyl]carbamoyl}phenyl)-3,4-dihydro-2,6-naphthyridine-2(1H)-carboxamide] as the compound, how does the IC50 read?
**A.** 45.2 nM

**Q.** How did the IC50 turn out when `O=C(CCS(=O)(=O)c1ccccc1)Nc1ccc(NC(=O)N2CCc3ccccc3C2)cc1` [Example 67, N-(4-{[3-(phenylsulfonyl)propanoyl]amino}phenyl)-3,4-dihydroisoquinoline-2(1H)-carboxamide] was run?
**A.** 16.7 nM

**Q.** For `O=C(NCCc1cccs1)c1ccc(NC(=O)N2CCc3ccc(F)cc3C2)cc1` [Example 23, 7-fluoro-N-(4-{[2-(2-thienyl)ethyl]carbamoyl}phenyl)-3,4-dihydroisoquinoline-2(1H)-carboxamide], which IC50 is on record?
**A.** 366 nM

**Q.** Which IC50 does the source give for `CC(C)CCC(=O)Nc1ccc(NC(=O)N2CCc3ccccc3C2)cc1` [Example 31, N-{4-[(4-methylpentanoyl)amino]phenyl}-3,4-dihydroisoquinoline-2(1H)-carboxamide] here?
**A.** 6.16 nM

**Q.** With `CNC(=O)N1CC=C(c2ccc(NC(=O)N3CCc4ccccc4C3)cc2)CC1` [Example 48, N-{4-[1-(methylcarbamoyl)-1,2,3,6-tetrahydropyridin-4-yl]phenyl}-3,4-dihydroisoquinoline-2(1H)-carboxamide] as the compound, how does the IC50 read?
**A.** 32.6 nM

**Q.** How did the IC50 turn out when `CC(C)C(=O)N1CC=C(c2ccc(NC(=O)N3CCc4ccccc4C3)cc2)CC1` [Example 46, N-[4-(1-isobutyryl-1,2,3,6-tetrahydropyridin-4-yl)phenyl]-3,4-dihydroisoquinoline-2(1H)-carboxamide] was run?
**A.** 15.3 nM

**Q.** With `CC(C)CCNC(=O)Cc1ccc(NC(=O)N2CCc3ccccc3C2)cc1` [Example 29, N-(4-{2-[(3-methylbutyl)amino]-2-oxoethyl}phenyl)-3,4-dihydroisoquinoline-2(1H)-carboxamide] as the compound, how does the IC50 read?
**A.** 1500 nM

**Q.** `CC(=O)N1CC=C(c2ccc(NC(=O)N3CCc4ccccc4C3)cc2)CC1` [Example 50, N-[4-(1-acetyl-1,2,3,6-tetrahydropyridin-4-yl)phenyl]-3,4-dihydroisoquinoline-2(1H)-carboxamide] was tested. Which IC50 did it give?
**A.** 58.6 nM

**Q.** For `O=C(CCc1cccs1)Nc1ccc(NC(=O)N2CCc3ccccc3C2)cc1` [Example 33, N-(4-{[3-(2-thienyl)propanoyl]amino}phenyl)-3,4-dihydroisoquinoline-2(1H)-carboxamide], which IC50 is on record?
**A.** 40.4 nM

**Q.** With `O=C(NCCc1cccs1)c1ccc(NC(=O)N2CCc3ccccc3C2)cc1` [Example 17, N-(4-{[2-(2-thienyl)ethyl]carbamoyl}phenyl)-3,4-dihydroisoquinoline-2(1H)-carboxamide] as the compound, how does the IC50 read?
**A.** 178 nM

**Q.** `O=C(NCCCc1ccccc1)c1ccc(NC(=O)N2CCc3cnccc3C2)cc1` [Example 4, N-{4-[(3-phenylpropyl)carbamoyl]phenyl}-3,4-dihydro-2,6-naphthyridine-2(1H)-carboxamide] was tested. Which IC50 did it give?
**A.** 15 nM

**Q.** How did the IC50 turn out when `O=C(CCC(F)(F)F)Nc1ccc(NC(=O)N2CCc3ccccc3C2)cc1` [Example 73, N-{4-[(4,4,4-trifluorobutanoyl)amino]phenyl}-3,4-dihydroisoquinoline-2(1H)-carboxamide] was run?
**A.** 33.2 nM
